This assay addresses Tyrosine-protein kinase SYK (Homo sapiens, UniProt P43405). Nature of the assay: In Vitro SYK Inhibition Assay. The following applies: pH 7.8; 25 °C. The procedure:
SYK kinase was purified as a full length protein in a baculovirus system near homogeneity. All kinase assays were performed with the Kinase TK (tyrosine kinase) HTRF (Homogeneous Time Resolved Fluorescence) assay developed by Cisbio international. […] Reactions were initiated upon introduction of the enzyme and terminated with the addition of one reaction volume (25 μl) of HTRF detection buffer. Plates were incubated for one hour at room temperature and the time resolved Fluorescence resonance energy transfer signal was measured in a Pherastar FS microplate reader (BMG Labtech). All data were the average of triplicate results with a standard deviation <10%.

The results in this text go back to BindingDB's records for patent US10053455 (Ab Science, 2018).

By IC50 is commonly meant the point on the concentration scale where inhibition reaches its midpoint. The molecule `O=C1NCCN(c2ncc(-c3cccc(Nc4nccc(-c5cccnc5)n4)c3)o2)C12CC2` [US10053455, 019] showed an IC50 of less than 500 nM.
